Test results from US20230348462A1, “IMIDAZO[4,5-C]QUINOLINE COMPOUNDS AND THEIR USE AS ATM KINASE INHIBITORS” (Deutsches Krebsforschungszentrum, priority 2020, published 2023).

What was measured:
human ATM = human ATM (Homo sapiens (Human), UniProt Q13315); experiment: Enzymatic ATM assay (RBC FRET enzyme assay); format: biochemical; conditions: substrate p53, 5-point dilution starting at 10 μM
Procedure: The inhibitory activity on the isolated ATM kinase was determined by a commercial supplier (Reaction Biology Corp., PA, US) using an activity based FRET assay. Compounds were therefore first pre-incubated with human ATM before substrate (p53) and ATP were added to initiate the phosphorylation reaction. After a given time, the kinase reaction was stopped and the amount of phosphorylated substrate was quantified using standard FRET detection methods. […] Detailed assay conditions and parameters can be requested from the commercial supplier.

[1] = test system: kras^G12D; mycOE; p53^−/− murine pancreatic cancer cells (KMP53); experiment: KMP53 cell assay (XTT cell viability with Etoposide); format: cell-based; conditions: Mus musculus, 4 h pre-treatment, then 300 nM Etoposide, 46 h
From the text: A selection of compounds was screened in a cellular assay system in two different cancer cell lines. Therefore, the cells were challenged with a generally non-cytotoxic concentration of Etoposid to induce DNA double strand breaks and the activation of the ATM pathway. The cells were further treated with different concentrations of the final compounds and viability of the cells was quantified using a standard XTT cell viability protocol. The principle of this assay lies in the fact that only alive and thus metabolically active cells are able to catalyze the reduction of XTT ((2,3-bis-(2-methoxy-4-nitro-5-sulfophenyl)-2H-tetrazolium-5-carboxanilide) by NADH from mitochondria, into formazan. The formazan product can be then detected using an absorbance-based microplate reader. The absorbance intensity measured in each well correlates to cell viability.
In brief, kras^G12D; mycOE; p53^−/− murine pancreatic cancer cells (KMP53) and Panc-1 human pancreatic ductal carcinoma cells were seeded in 96-well plates and left to attach overnight. The following day, cells were treated with serial dilutions of compound or DMSO in triplicates. The cells were first pre-treated for 4 hours with inhibitor and then 300 nM of Etoposide was added to each well. Cells were then grown under normal conditions (37° C., 95% air, 5% CO2) for 46 h. Following the incubation period, XTT solution was added to the cells containing 1 mg/ml XTT and 25 μM phenazine methosulfate (PMS) diluted in full culture medium. Cells were incubated in normal conditions for two more hours. For the determination of cell viability, absorbance at 450 nm was measured for each well. Absorbance values were then normalized to DMSO control and expressed as percentages of viability. Using software GraphPad Prism, the values were fitted in a nonlinear response curve and the IC50 values were calculated.

Chain of human ATM (Q13315 whole entry): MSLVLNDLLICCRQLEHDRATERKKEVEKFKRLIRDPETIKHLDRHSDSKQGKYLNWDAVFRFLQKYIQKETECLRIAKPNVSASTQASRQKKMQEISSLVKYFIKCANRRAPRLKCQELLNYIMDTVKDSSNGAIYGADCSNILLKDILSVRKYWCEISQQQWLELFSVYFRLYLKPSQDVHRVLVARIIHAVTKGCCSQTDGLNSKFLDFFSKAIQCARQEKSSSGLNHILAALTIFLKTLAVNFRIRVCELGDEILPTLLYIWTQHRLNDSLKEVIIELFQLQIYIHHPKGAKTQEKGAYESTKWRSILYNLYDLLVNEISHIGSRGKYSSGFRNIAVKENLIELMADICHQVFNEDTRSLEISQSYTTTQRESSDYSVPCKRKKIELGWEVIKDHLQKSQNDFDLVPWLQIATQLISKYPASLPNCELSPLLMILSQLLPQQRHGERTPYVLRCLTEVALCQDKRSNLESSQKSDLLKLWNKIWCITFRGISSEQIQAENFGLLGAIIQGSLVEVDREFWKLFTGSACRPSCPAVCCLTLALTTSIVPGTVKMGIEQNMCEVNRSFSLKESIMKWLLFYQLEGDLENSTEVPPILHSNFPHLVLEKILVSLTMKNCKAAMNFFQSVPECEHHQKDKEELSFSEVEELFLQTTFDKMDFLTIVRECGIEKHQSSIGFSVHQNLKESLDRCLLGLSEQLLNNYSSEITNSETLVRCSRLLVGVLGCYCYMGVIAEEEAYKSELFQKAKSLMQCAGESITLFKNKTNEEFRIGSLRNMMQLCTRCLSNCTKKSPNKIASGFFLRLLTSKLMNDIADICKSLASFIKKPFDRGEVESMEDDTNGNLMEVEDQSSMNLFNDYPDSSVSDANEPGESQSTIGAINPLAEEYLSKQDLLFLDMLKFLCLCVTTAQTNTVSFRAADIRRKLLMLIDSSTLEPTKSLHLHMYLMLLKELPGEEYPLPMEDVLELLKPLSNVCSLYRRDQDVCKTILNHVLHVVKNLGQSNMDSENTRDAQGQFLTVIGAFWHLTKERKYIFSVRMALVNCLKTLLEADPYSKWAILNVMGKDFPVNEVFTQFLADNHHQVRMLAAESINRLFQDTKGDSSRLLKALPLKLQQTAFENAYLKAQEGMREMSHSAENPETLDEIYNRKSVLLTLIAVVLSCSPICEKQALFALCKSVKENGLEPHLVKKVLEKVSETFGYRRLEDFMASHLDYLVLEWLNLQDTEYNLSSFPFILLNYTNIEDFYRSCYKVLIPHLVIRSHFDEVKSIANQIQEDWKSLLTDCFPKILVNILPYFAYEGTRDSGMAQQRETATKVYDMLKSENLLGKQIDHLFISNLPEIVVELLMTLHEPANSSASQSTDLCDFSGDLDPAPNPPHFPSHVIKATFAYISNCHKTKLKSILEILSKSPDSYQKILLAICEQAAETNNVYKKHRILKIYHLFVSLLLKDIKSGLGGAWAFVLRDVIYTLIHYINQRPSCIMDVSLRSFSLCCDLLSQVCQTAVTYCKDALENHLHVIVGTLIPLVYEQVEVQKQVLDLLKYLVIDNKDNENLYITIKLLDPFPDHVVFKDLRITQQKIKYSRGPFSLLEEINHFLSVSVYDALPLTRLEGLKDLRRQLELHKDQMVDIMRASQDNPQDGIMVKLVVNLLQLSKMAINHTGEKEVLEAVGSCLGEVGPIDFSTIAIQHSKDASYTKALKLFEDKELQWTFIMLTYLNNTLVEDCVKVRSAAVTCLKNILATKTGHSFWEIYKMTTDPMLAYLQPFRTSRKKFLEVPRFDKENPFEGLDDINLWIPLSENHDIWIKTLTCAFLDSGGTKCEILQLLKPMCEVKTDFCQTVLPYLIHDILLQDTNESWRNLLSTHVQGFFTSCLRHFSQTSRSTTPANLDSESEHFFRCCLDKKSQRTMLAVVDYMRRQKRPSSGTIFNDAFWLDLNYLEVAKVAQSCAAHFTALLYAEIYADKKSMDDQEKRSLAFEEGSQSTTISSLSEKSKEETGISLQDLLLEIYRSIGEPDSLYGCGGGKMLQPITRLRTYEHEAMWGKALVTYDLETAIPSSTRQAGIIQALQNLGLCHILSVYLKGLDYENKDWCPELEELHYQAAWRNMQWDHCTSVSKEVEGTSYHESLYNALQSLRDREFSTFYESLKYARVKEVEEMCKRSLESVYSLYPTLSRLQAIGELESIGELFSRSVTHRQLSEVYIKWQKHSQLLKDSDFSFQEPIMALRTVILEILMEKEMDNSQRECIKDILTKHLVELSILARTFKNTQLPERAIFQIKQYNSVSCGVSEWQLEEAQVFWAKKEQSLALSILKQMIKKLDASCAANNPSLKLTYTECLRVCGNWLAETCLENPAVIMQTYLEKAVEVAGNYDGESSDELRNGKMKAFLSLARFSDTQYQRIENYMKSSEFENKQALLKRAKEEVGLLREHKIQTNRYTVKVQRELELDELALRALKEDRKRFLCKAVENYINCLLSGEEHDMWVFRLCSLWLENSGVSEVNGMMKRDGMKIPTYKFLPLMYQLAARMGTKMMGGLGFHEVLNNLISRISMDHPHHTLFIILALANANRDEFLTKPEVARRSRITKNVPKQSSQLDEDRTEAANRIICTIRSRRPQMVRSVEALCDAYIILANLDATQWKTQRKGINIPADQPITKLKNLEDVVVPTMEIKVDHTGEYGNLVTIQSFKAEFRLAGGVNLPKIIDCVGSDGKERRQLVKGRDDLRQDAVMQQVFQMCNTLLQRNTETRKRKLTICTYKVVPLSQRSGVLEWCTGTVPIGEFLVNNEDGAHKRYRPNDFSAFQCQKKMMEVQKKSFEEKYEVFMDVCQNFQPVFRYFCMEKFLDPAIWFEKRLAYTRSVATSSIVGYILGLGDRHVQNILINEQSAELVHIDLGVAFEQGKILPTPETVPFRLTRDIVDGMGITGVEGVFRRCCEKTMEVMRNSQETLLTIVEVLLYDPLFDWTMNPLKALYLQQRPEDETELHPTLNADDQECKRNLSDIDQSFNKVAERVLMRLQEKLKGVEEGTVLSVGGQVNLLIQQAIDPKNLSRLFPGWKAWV

SMILES	IC50 (human ATM) [nM]	IC50 [1] [nM]
Cc1nc2cnc3ccc(-c4ccc(OCCCN(C)C)nc4)cc3c2n1C1CCOCC1 [Ex. 2, N,N-Dimethyl-3-((5-(2-methyl-1-(tetrahydro-2H-pyran-4-yl)-1H-imidazo[4,5-c]quinolin-8-yl)pyridin-2-yl)oxy)propan-1-amine]	2.9	8100
CN(C)CCCOc1ccc(-c2ccc3ncc4nc(-c5ccccc5)n(C5CCOCC5)c4c3c2)cn1 [Ex. 4, N,N-Dimethyl-3-((5-(2-phenyl-1-(tetrahydro-2H-pyran-4-yl)-1H-imidazo[4,5-c]quinolin-8-yl)pyridin-2-yl)oxy)propan-1-amine]	3.7	2100
COCCn1cnc2cnc3ccc(-c4ccc(OCCCN(C)C)nc4)cc3c21 [Ex. 5, 3-((5-(1-(2-Methoxyethyl)-1H-imidazo[4,5-c]quinolin-8-yl)pyridin-2-yl)oxy)-N,N-dimethylpropan-1-amine]	3.3	3400
COCCn1c(=O)n(C)c2cnc3ccc(-c4ccc(NC(=O)NC5CCN(C)CC5)cc4)cc3c21 [Ex. 18, 1-(4-(1-(2-Methoxyethyl)-3-methyl-2-oxo-2,3-dihydro-1H-imidazo[4,5-c]quinolin-8-yl)phenyl)-3-(1-methylpiperidin-4-yl)urea]	4	–
COCCn1c(=O)n(C)c2cnc3ccc(-c4ccc(NC(=O)N5CCN(C)CC5)cc4)cc3c21 [Ex. 20, N-(4-(1-(2-methoxyethyl)-3-methyl-2-oxo-2,3-dihydro-1H-imidazo[4,5-c]quinolin-8-yl)phenyl)-4-methylpiperazine-1-carboxamide]	–	3800
COCCn1c(=O)n(C)c2cnc3ccc(-c4ccc(NC(=O)N5CCC(N(C)C)C5)cc4)cc3c21 (centres unmarked) [Ex. 25, 3-(Dimethylamino)-N-(4-(1-(2-methoxyethyl)-3-methyl-2-oxo-2,3-dihydro-1H-imidazo[4,5-c]quinolin-8-yl)phenyl)pyrrolidine-1-carboxamide]	7	–
COCCn1c(=O)n(C)c2cnc3ccc(-c4ccc(NC(=O)N5CC(N(C)C)C5)cc4)cc3c21 [Ex. 26, 3-(Dimethylamino)-N-(4-(1-(2-methoxyethyl)-3-methyl-2-oxo-2,3-dihydro-1H-imidazo[4,5-c]58uinoline-8-yl)phenyl)azetidine-1-carboxamide]	4	–
COCCn1c(=O)n(C)c2cnc3ccc(-c4ccc(NC(=O)NCCN(C)C)c(F)c4F)cc3c21 [Ex. 46, 1-(2,3-Difluoro-4-(1-(2-methoxyethyl)-3-methyl-2-oxo-2,3-dihydro-1H-imidazo[4,5-c]quinolin-8-yl)phenyl)-3-(2-(dimethylamino)ethyl)urea]	3	8940
COCCn1c(=O)n(C)c2cnc3ccc(-c4ccc(NC(=O)NCCN(C)C)c(C)c4F)cc3c21 [Ex. 48, 1-(2-(Dimethylamino)ethyl)-3-(3-fluoro-4-(1-(2-methoxyethyl)-3-methyl-2-oxo-2,3-dihydro-1H-imidazo[4,5-c]quinolin-8-yl)-2-methylphenyl)urea]	–	7950

Next, values leading:

IC50 (human ATM) [nM]	IC50 [1] [nM]	SMILES
< 1	5470	COCCn1c(=O)n(C)c2cnc3ccc(-c4ccc(NC(=O)NC(C)CN(C)C)cc4)cc3c21 (racemic) [Ex. 52, (RS)-1-(1-(Dimethylamino)propan-2-yl)-3-(4-(1-(2-methoxyethyl)-3-methyl-2-oxo-2,3-dihydro-1H-imidazo[4,5-c]quinolin-8-yl)phenyl)urea]
2.3	6900	CN(C)CCCOc1ccc(-c2ccc3ncc4ncn(C5CCOCC5)c4c3c2)cn1 [Ex. 1, N,N-Dimethyl-3-((5-(1-(tetrahydro-2H-pyran-4-yl)-1H-imidazo[4,5-c]quinolin-8-yl)pyridin-2-yl)oxy)propan-1-amine]
< 1	7500	CN(C)CCCOc1ccc(-c2ccc3ncc4nc(-c5ccco5)n(C5CCOCC5)c4c3c2)cn1 [Ex. 3, 3-((5-(2-(Furan-2-yl)-1-(tetrahydro-2H-pyran-4-yl)-1H-imidazo[4,5-c]quinolin-8-yl)pyridin-2-yl)oxy)-N,N-dimethylpropan-1-amine]
< 1	3420	COCCn1c(-c2ccco2)nc2cnc3ccc(-c4ccc(OCCCN(C)C)nc4)cc3c21 [Ex. 6, 3-((5-(2-(Furan-2-yl)-1-(2-methoxyethyl)-1H-imidazo[4,5-c]quinolin-8-yl)pyridin-2-yl)oxy)-N,N-dimethylpropan-1-amine dimesylate]
2	410	CN1CCN(C(=O)Nc2ccc(-c3ccc4ncc5c(c4c3)n(C3CCOCC3)c(=O)n5C)cn2)CC1 [Ex. 8, 4-Methyl-N-(5-(3-methyl-2-oxo-1-(tetrahydro-2H-pyran-4-yl)-2,3-dihydro-1H-imidazo[4,5-c]quinolin-8-yl)pyridin-2-yl)piperazine-1-carboxamide]
< 1	1580	COCCn1c(=O)n(C)c2cnc3ccc(-c4ccc(OCCCN(C)C)nc4)cc3c21 [Ex. 9, 8-(6-(3-(Dimethylamino)propoxy)43uinolin-3-yl)-1-(2-methoxyethyl)-3-methyl-1,3-dihydro-2H-imidazo[4,5-c]43uinoline-2-one]
< 1	1450	CN(C)CCNC(=O)Nc1ccc(-c2ccc3ncc4c(c3c2)n(C2CCOCC2)c(=O)n4C)cc1 [Ex. 10, 1-(2-(Dimethylamino)ethyl)-3-(4-(3-methyl-2-oxo-1-(tetrahydro-2H-pyran-4-yl)-2,3-dihydro-1H-imidazo[4,5-c]quinolin-8-yl)phenyl)urea]
< 1	4000	COCCn1c(=O)n(C)c2cnc3ccc(-c4ccc(NC(=O)NCCN(C)C)cc4)cc3c21 [Ex. 11, 1-(2-(Dimethylamino)ethyl)-3-(4-(1-(2-methoxyethyl)-3-methyl-2-oxo-2,3-dihydro-1H-imidazo[4,5-c]quinolin-8-yl)phenyl)urea]
2.3	–	COCCn1c(=O)n(C)c2cnc3ccc(-c4ccc(NC(=O)N5CCC(NC(=O)OC(C)(C)C)CC5)cc4)cc3c21 [Ex. 13, tert-Butyl (1-((4-(1-(2-methoxyethyl)-3-methyl-2-oxo-2,3-dihydro-1H-imidazo[4,5-c]quinolin-8-yl)phenyl)carbamoyl)piperidin-4-yl)carbamate]
< 1	–	COCCn1c(=O)n(C)c2cnc3ccc(-c4ccc(NC(=O)NC5CCN(C(=O)OC(C)(C)C)CC5)cc4)cc3c21 [Ex. 15, tert-Butyl 4-(3-(4-(1-(2-methoxyethyl)-3-methyl-2-oxo-2,3-dihydro-1H-imidazo[4,5-c]quinolin-8-yl)phenyl)ureido)piperidine-1-carboxylate]
< 1	–	COCCn1c(=O)n(C)c2cnc3ccc(-c4ccc(NC(=O)NC5CN(C)C5)cc4)cc3c21 [Ex. 21, 1-(4-(1-(2-Methoxyethyl)-3-methyl-2-oxo-2,3-dihydro-1H-imidazo[4,5-c]quinolin-8-yl)phenyl)-3-(1-methylazetidin-3-yl)urea]
< 1	–	COCCn1c(=O)n(C)c2cnc3ccc(-c4ccc(NC(=O)NCCN5CCC5)cc4)cc3c21 [Ex. 49, 1-(2-(Azetidin-1-yl)ethyl)-3-(4-(1-(2-methoxyethyl)-3-methyl-2-oxo-2,3-dihydro-1H-imidazo[4,5-c]quinolin-8-yl)phenyl)urea]
< 1	8040	COCCn1c(=O)n(C)c2cnc3ccc(-c4ccc(NC(=O)NCCN5CC(F)C5)cc4)cc3c21 [Ex. 50, 1-(2-(3-Fluoroazetidin-1-yl)ethyl)-3-(4-(1-(2-methoxyethyl)-3-methyl-2-oxo-2,3-dihydro-1H-imidazo[4,5-c]quinolin-8-yl)phenyl)urea]
